Bridge positions count the residues as written; N and C are the ends. Square brackets hold non-standard residues; d marks the D form. Peptide text beside a SMILES is read from it. * marks the point of attachment. ξ: configuration not given here. Phe(4-COOH) = N[C@@H](Cc1ccc(C(=O)O)cc1)C(=O)O; Bip = N[C@@H](Cc1ccc(-c2ccccc2)cc1)C(=O)O; Phe(3-CN) = N#Cc1cccc(C[C@H](N)C(=O)O)c1; Phe(3-Me) = Cc1cccc(C[C@H](N)C(=O)O)c1; Phe(4-F) = N[C@@H](Cc1ccc(F)cc1)C(=O)O; Phe(2-F) = N[C@@H](Cc1ccccc1F)C(=O)O; h4Pal = N[C@@H](CCc1ccncc1)C(=O)O; Cha = N[C@@H](CC1CCCCC1)C(=O)O; Ile(3ξ) = CCC(C)[C@H](N)C(=O)O; Thr(3ξ) = CC(O)[C@H](N)C(=O)O; hLeu = CC(C)CC[C@H](N)C(=O)O; Pip = O=C(O)[C@@H]1CCCCN1; Carboxymethyl = O=C(O)C*; NMeA = CN[C@@H](C)C(=O)O; Dab = NCC[C@H](N)C(=O)O; Dap = NC[C@H](N)C(=O)O
Target: T1, PE-labeled human PD-L1-Ig binding to Jurkat cell line over-expressing human PD-1 (Jurkat-PD-1) (Homo sapiens, UniProt Q15116)
T1 construct: expressed in transfected cells; host or cells: Jurkat
Experiment: Jurkat-PD-1 Cell Binding High-Content Screening Assay (CBA): Method 1
Conditions: Jurkat-hPD-1 cells, PE-labeled PD-L1-Ig 20 nM final; read-out: Jurkat HPDL1 PD1 IC50 (uM) (Method 1)

T1 sequence (Q15116 25-288): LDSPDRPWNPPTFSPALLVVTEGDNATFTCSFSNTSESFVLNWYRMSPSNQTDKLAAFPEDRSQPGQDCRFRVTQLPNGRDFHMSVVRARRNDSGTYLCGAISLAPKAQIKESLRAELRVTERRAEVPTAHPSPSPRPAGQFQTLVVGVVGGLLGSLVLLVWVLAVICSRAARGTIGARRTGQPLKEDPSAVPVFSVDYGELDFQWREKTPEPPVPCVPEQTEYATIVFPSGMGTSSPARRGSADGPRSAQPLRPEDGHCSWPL

IC50 [µM] | SMILES
0.06 | CC(C)CC[C@@H]1NC(=O)[C@H](CCCNC(=N)N)NC(=O)[C@@H](CC(C)C)NC(=O)[C@H](C)N(C)C(=O)[C@H](CCCNC(=N)N)NC(=O)[C@H](Cc2ccc(-c3ccccc3)cc2)NC(=O)[C@H](C(C)C)NC(=O)[C@H](Cc2c[nH]c3ccccc23)NC(=O)[C@H](CC(=O)O)NC(=O)[C@H](Cc2ccc(O)cc2)NC(=O)[C@H](Cc2ccccc2)NC(=O)CSC[C@@H](C(=O)N[C@@H](C)C(N)=O)NC(=O)[C@H]([C@@H](C)O)NC(=O)[C@H](C(C)C)NC1=O [Compound 1116] ({CH2CO}-FYDWV[Bip]R[NMeA][dL]R[hLeu]VTCA-NH2; thioether N-14)
0.04 | CCC(C)[C@@H]1NC(=O)[C@H](Cc2ccc(-c3ccccc3)cc2)NC(=O)[C@H](CC(C)C)NC(=O)[C@H](Cc2c[nH]c3ccccc23)NC(=O)[C@H](CC(=O)O)NC(=O)[C@H](Cc2ccc(C(=O)O)cc2)NC(=O)[C@H](Cc2ccc(OCC(=O)O)cc2)NC(=O)CSC[C@@H](C(=O)N[C@@H](CC(N)=O)C(N)=O)NC(=O)[C@H]([C@@H](C)O)NC(=O)[C@H](C(C)C)NC(=O)[C@H](CC2CCCCC2)NC(=O)[C@H](CCN)NC(=O)[C@@H](CC(C)C)NC(=O)[C@H](C)N(C)C1=O (stereo partly drawn) [Compound 1922] ({CH2CO}-Y(Carboxymethyl)[Phe(4-COOH)]DWL[Bip][Ile(3ξ)][NMeA][dL][Dab][Cha]VTCN-NH2; thioether N-14)
0.02 | CC(C)C[C@@H]1NC(=O)[C@H](CCN)NC(=O)[C@@H](CC(C)C)NC(=O)[C@H](C)N(C)C(=O)[C@H](CCCNC(=N)N)NC(=O)[C@H](Cc2ccc(-c3ccccc3)cc2)NC(=O)[C@H](C(C)C)NC(=O)[C@H](Cc2c[nH]c3ccccc23)NC(=O)[C@H](CC(=O)O)NC(=O)[C@H](Cc2ccccc2F)NC(=O)[C@H](CN)NC(=O)CSC[C@@H](C(=O)N[C@@H](C)C(N)=O)NC(=O)[C@H]([C@@H](C)O)NC(=O)[C@H](C(C)C)NC1=O [Compound 1454] ({CH2CO}-[Dap][Phe(2-F)]DWV[Bip]R[NMeA][dL][Dab]LVTCA-NH2; thioether N-14)
0.01 | Cc1cccc(C[C@@H]2NC(=O)[C@H](CC(=O)O)NC(=O)[C@H](Cc3ccc(C(=O)O)cc3)NC(=O)[C@H](Cc3ccc(F)cc3)NC(=O)CSC[C@@H](C(=O)N[C@@H](CCN)C(N)=O)NC(=O)[C@H](CCC(=O)O)NC(=O)[C@H](C(C)C)NC(=O)[C@H](CC3CCCCC3)NC(=O)[C@H](CCN)NC(=O)[C@@H](CC(C)C)NC(=O)[C@H](C)N(C)C(=O)[C@H](Cc3ccc(C(=O)O)cc3)NC(=O)[C@H](Cc3ccc(-c4ccccc4)cc3)NC(=O)[C@H](Cc3ccc(C(=O)O)cc3)NC2=O)c1 [Compound 2208] ({CH2CO}-[Phe(4-F)][Phe(4-COOH)]D[Phe(3-Me)][Phe(4-COOH)][Bip][Phe(4-COOH)][NMeA][dL][Dab][Cha]VEC[Dab]-NH2; thioether N-14)
0.07 | CC(C)C[C@@H]1NC(=O)[C@H](CCCNC(=N)N)NC(=O)[C@@H](C)NC(=O)[C@H](C)N(C)C(=O)[C@H](C(C)C)NC(=O)[C@H](Cc2ccc(-c3ccccc3)cc2)NC(=O)[C@H](C(C)C)NC(=O)[C@H](Cc2c[nH]c3ccccc23)NC(=O)[C@H](CC(=O)O)NC(=O)[C@H](Cc2ccc(O)cc2)NC(=O)[C@H](Cc2ccccc2)NC(=O)CSC[C@@H](C(=O)N[C@@H](C)C(N)=O)NC(=O)[C@H](CO)NC(=O)[C@H](C(C)C)NC1=O [Compound 1779] ({CH2CO}-FYDWV[Bip]V[NMeA][dA]RLVSCA-NH2; thioether N-14)
0.17 | CC(C)C[C@@H]1NC(=O)[C@H](CCN)NC(=O)[C@@H](CC(C)C)NC(=O)[C@H](C)N(C)C(=O)[C@H](CCCNC(=N)N)NC(=O)[C@H](Cc2ccc(-c3ccccc3)cc2)NC(=O)[C@H](C(C)C)NC(=O)[C@H](Cc2cccc(C#N)c2)NC(=O)[C@H](CC(=O)O)NC(=O)[C@H](Cc2ccc(OCC(=O)O)cc2)NC(=O)[C@H](CN)NC(=O)CSC[C@@H](C(=O)N[C@@H](C)C(N)=O)NC(=O)[C@H]([C@@H](C)O)NC(=O)[C@H](C(C)C)NC1=O [Compound 1449] ({CH2CO}-[Dap]Y(Carboxymethyl)D[Phe(3-CN)]V[Bip]R[NMeA][dL][Dab]LVTCA-NH2; thioether N-14)
0.09 | CC[C@H](C)[C@@H]1NC(=O)[C@H](Cc2ccc(-c3ccccc3)cc2)NC(=O)[C@H](C(C)C)NC(=O)[C@H](Cc2c[nH]c3ccccc23)NC(=O)[C@H](CC(=O)O)NC(=O)[C@H](Cc2ccc(O)cc2)NC(=O)[C@H](Cc2ccccc2)NC(=O)CSC[C@@H](C(=O)N[C@@H](C)C(N)=O)NC(=O)[C@H]([C@@H](C)O)NC(=O)[C@H](C(C)C)NC(=O)[C@H](CC(C)C)NC(=O)[C@H](CCCNC(=N)N)NC(=O)[C@@H](CC(C)C)NC(=O)[C@H](C)N(C)C1=O [Compound 1491] ({CH2CO}-FYDWV[Bip]I[NMeA][dL]RLVTCA-NH2; thioether N-14)
0.1 | Cc1cccc(C[C@@H]2NC(=O)[C@H](CC(=O)O)NC(=O)[C@H](Cc3ccc(OCC(=O)O)cc3)NC(=O)[C@H](C(C)O)NC(=O)CSC[C@@H](C(N)=O)NC(=O)[C@H](CCCCN)NC(=O)[C@H](C(C)C)NC(=O)[C@H](CC(C)C)NC(=O)[C@H](CC(N)=O)NC(=O)[C@@H](CC(C)C)NC(=O)[C@H](C)N(C)C(=O)[C@H](C(C)C)NC(=O)[C@H](Cc3ccc(-c4ccccc4)cc3)NC(=O)[C@H](CC(C)C)NC2=O)c1 (stereo partly drawn) [Compound 2259] ({CH2CO}-[Thr(3ξ)]Y(Carboxymethyl)D[Phe(3-Me)]L[Bip]V[NMeA][dL]NLVKC-NH2; thioether N-14)
0.14 | CC[C@H](C)[C@@H]1NC(=O)[C@H](Cc2ccc(-c3ccccc3)cc2)NC(=O)[C@H](C(C)C)NC(=O)[C@H](Cc2c[nH]c3ccccc23)NC(=O)[C@H](CC(=O)O)NC(=O)[C@H](Cc2ccc(O)cc2)NC(=O)[C@H](CC(N)=O)NC(=O)CSC[C@@H](C(=O)N[C@@H](C)C(N)=O)NC(=O)[C@H]([C@@H](C)O)NC(=O)[C@H](C(C)C)NC(=O)[C@H](CC(C)C)NC(=O)[C@H](CCN)NC(=O)[C@@H](CC(C)C)NC(=O)[C@@H]2CCCCN2C1=O [Compound 1399] ({CH2CO}-NYDWV[Bip]I[Pip][dL][Dab]LVTCA-NH2; thioether N-14)
0.07 | CC(C)C[C@@H]1NC(=O)[C@H](CCN)NC(=O)[C@@H](CC(C)C)NC(=O)[C@H](C)N(C)C(=O)[C@H](Cc2ccc(O)cc2)NC(=O)[C@H](Cc2ccc(-c3ccccc3)cc2)NC(=O)[C@H](C(C)C)NC(=O)[C@H](Cc2c[nH]c3ccccc23)NC(=O)[C@H](CC(=O)O)NC(=O)[C@H](Cc2ccc(O)cc2)NC(=O)[C@H](CC(N)=O)NC(=O)CSC[C@@H](C(=O)N[C@@H](C)C(N)=O)NC(=O)[C@H]([C@@H](C)O)NC(=O)[C@H](C(C)C)NC1=O [Compound 1303] ({CH2CO}-NYDWV[Bip]Y[NMeA][dL][Dab]LVTCA-NH2; thioether N-14)
0.02 | CC(C)C[C@@H]1NC(=O)[C@H](Cc2c[nH]c3ccccc23)NC(=O)[C@H](CC(=O)O)NC(=O)[C@H](Cc2ccc(OCC(=O)O)cc2)NC(=O)[C@H](CCc2ccncc2)NC(=O)CSC[C@@H](C(=O)N[C@@H](CC(N)=O)C(N)=O)NC(=O)[C@H](Cc2cnc[nH]2)NC(=O)[C@H](C(C)C)NC(=O)[C@H](CC(C)C)NC(=O)[C@H](CCN)NC(=O)[C@@H](CC(C)C)NC(=O)[C@H](C)N(C)C(=O)[C@H](C(C)C)NC(=O)[C@H](Cc2ccc(-c3ccccc3)cc2)NC1=O [Compound 2099] ({CH2CO}-[h4Pal]Y(Carboxymethyl)DWL[Bip]V[NMeA][dL][Dab]LVHCN-NH2; thioether N-14)
